The target in one series is T1, PTH1 receptor (Homo sapiens, UniProt Q03431).
T1 construct: expressed in transfected cells; host or cells: HEK293
T1 sequence (Q03431 27-593): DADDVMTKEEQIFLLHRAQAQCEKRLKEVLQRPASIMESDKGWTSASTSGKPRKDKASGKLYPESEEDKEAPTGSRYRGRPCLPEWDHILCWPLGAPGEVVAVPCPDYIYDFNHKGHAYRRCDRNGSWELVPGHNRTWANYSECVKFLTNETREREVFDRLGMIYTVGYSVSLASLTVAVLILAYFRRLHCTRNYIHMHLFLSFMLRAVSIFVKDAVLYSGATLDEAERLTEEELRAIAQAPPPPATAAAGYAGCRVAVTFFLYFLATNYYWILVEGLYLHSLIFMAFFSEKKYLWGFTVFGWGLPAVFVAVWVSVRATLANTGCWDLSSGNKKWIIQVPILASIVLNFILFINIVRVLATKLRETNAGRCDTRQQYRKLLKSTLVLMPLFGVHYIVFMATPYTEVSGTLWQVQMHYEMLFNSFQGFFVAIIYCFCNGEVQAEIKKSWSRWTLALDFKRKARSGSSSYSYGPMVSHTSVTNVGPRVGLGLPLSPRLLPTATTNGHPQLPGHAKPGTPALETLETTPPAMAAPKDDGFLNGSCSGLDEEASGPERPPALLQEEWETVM
The experiment in a line: Luciferase-based reporter gene assay for cAMP detection (HEK293 cells). It is filed as cell-based. To be noted: for potency at the PTH receptor: luciferase reporter of cAMP production. As for the experimental part:
At the end of the incubation, 50 μL of Steady-Lite Plus (PerkinElmer, Waltham, MA) were added to each well. The plate was shaken briefly, incubated four minutes and light output was measured on an EnSpire Alpha Multi-mode Plate Reader (PerkinElmer, Waltham, MA).

A short description of series [1]: Cleavage half-life / conversion of PTH prodrugs in PBS pH 7.4, 37° C. by LC-MS. It is filed as physicochemical. To be noted: for half-life: PBS buffer, dipeptide cleavage from PTH prodrug, PBS pH 7.4, 37° C., read-out: Half life (converted); for Half life, fold faster than Sar (vs SEQ ID NO: 52): comparator SEQ ID NO: 52. As for the experimental part: The resulting solution was incubated at 37° C. Aliquots were taken at designed time points and analyzed by LC-MS. […] Flow rate of 1 mL/min and a gradient of 10%-80% acetonitrile in water, with 0.1% trifluoroacetic acid over 10 min. […] The concentration of prodrug and drug were determined by their relative peak areas. The […] dissociation rate constant of the prodrug was determined by plotting the logarithm in the concentration of the prodrug at various time points.

*1 amine or outer side, *2 acyl side, *3 side chain or, on linkers, in order; H or OH if unused. Where no end group is shown, it is not given here. Side-chain parts run from the residue outwards. The star is where a group is joined. C18 diacid = O=C(O)CCCCCCCCCCCCCCCCC(=O)*; γGlu = O=C(O)[C@H](CCC(=O)[*:2])N[*:1]; AEEA = NCCOCCOCC(=O)O

The term EC50 denotes the concentration at which the effect is half-maximal. Broadly, the half-life is the time in which the quantity being followed falls by half.

Consider “(dK)K(γE-COC16H32CO2H)GSVSEIQLMHNLGKHLNSMERVEWLRKKLQDVHNF [SEQ ID NO: 10, acylated dipeptide attached to PTH (1-34)]”, for which, in the series with PTH1 receptor (FIGS. 3A, 3B), the “potency at the PTH receptor” value is reported as “decreases the potency”.

Turning to `CC[C@H](C)[C@H](NC(=O)[C@H](CCC(=O)O)NC(=O)[C@H](CO)NC(=O)[C@@H](NC(=O)[C@H](CO)NC(=O)CN(C)C(=O)[C@H](N)CCCCNC(=O)CC[C@H](NC(=O)CCCCCCCCCCCCCCCCC(=O)O)C(=O)O)C(C)C)C(=O)N[C@@H](CCC(N)=O)C(=O)N[C@@H](CC(C)C)C(=O)N[C@@H](CCSC)C(=O)N[C@@H](Cc1c[nH]cn1)C(=O)N[C@@H](CC(N)=O)C(=O)N[C@@H](CC(C)C)C(=O)NCC(=O)N[C@@H](CCCCN)C(=O)N[C@@H](Cc1c[nH]cn1)C(=O)N[C@@H](CC(C)C)C(=O)N[C@@H](CC(N)=O)C(=O)N[C@@H](CO)C(=O)N[C@@H](CCSC)C(=O)N[C@@H](CCC(=O)O)C(=O)N[C@@H](CCCNC(=N)N)C(=O)N[C@H](C(=O)N[C@@H](CCC(=O)O)C(=O)N[C@@H](Cc1c[nH]c2ccccc12)C(=O)N[C@@H](CC(C)C)C(=O)N[C@@H](CCCNC(=N)N)C(=O)N[C@@H](CCCCN)C(=O)N[C@@H](CCCCN)C(=O)N[C@@H](CC(C)C)C(=O)N[C@@H](CCC(N)=O)C(=O)N[C@@H](CC(=O)O)C(=O)N[C@H](C(=O)N[C@@H](Cc1c[nH]cn1)C(=O)N[C@@H](CCC(N)=O)C(=O)N[C@@H](Cc1ccccc1)C(=O)O)C(C)C)C(C)C` [SEQ ID NO: 61], the “potency at the PTH receptor” value on PTH1 receptor (FIGS. 3A, 3B) was “decreases the potency”. For the same molecule, the EC50 on PTH1 receptor (HEK293 cells, PTH1 receptor, cAMP-responsive luciferase, 5 hours, read-out: Potency EC50) is 45.5 nM.

Turning to “SVSEIQLAHNLGKHLNSMERVEWLRKKLQDVHK(γE-(miniPEG)2-γE-COC16H32CO2H)-OH (SVSEIQLAHNLGKHLNSMERVEWLRKKLQDVHK([γGlu-AEEA-AEEA-γGlu-C18 diacid])-OH; N-terminus assumed; SMILES CC[C@H](C)[C@H](NC(=O)[C@H](CCC(=O)O)NC(=O)[C@H](CO)NC(=O)[C@@H](NC(=O)[C@@H](N)CO)C(C)C)C(=O)N[C@@H](CCC(N)=O)C(=O)N[C@@H](CC(C)C)C(=O)N[C@@H](C)C(=O)N[C@@H](Cc1c[nH]cn1)C(=O)N[C@@H](CC(N)=O)C(=O)N[C@@H](CC(C)C)C(=O)NCC(=O)N[C@@H](CCCCN)C(=O)N[C@@H](Cc1c[nH]cn1)C(=O)N[C@@H](CC(C)C)C(=O)N[C@@H](CC(N)=O)C(=O)N[C@@H](CO)C(=O)N[C@@H](CCSC)C(=O)N[C@@H](CCC(=O)O)C(=O)N[C@@H](CCCNC(=N)N)C(=O)N[C@H](C(=O)N[C@@H](CCC(=O)O)C(=O)N[C@@H](Cc1c[nH]c2ccccc12)C(=O)N[C@@H](CC(C)C)C(=O)N[C@@H](CCCNC(=N)N)C(=O)N[C@@H](CCCCN)C(=O)N[C@@H](CCCCN)C(=O)N[C@@H](CC(C)C)C(=O)N[C@@H](CCC(N)=O)C(=O)N[C@@H](CC(=O)O)C(=O)N[C@H](C(=O)N[C@@H](Cc1c[nH]cn1)C(=O)N[C@@H](CCCCNC(=O)CC[C@H](NC(=O)COCCOCCNC(=O)COCCOCCNC(=O)CC[C@H](NC(=O)CCCCCCCCCCCCCCCCC(=O)O)C(=O)O)C(=O)O)C(=O)O)C(C)C)C(C)C; listed as Homo sapiens) [SEQ ID NO: 93, PTH(1-33), A8, K33(γE-2xOEG-γE-diacidC18)]”, the “reduction of in vitro potency by alanine substitution at position 8” value with PTH1 receptor is approximately 100 fold. Besides, the “potency at the PTH receptor” value in the series with PTH1 receptor (FIG. 4) is on record as “decreases PTH activity”.

For `CC[C@H](C)[C@H](NC(=O)[C@H](CCC(=O)O)NC(=O)[C@H](CO)NC(=O)[C@@H](NC(=O)[C@H](CO)NC(=O)CN(C(=O)[C@@H](N)CCCCNC(=O)CC[C@H](NC(=O)CCCCCCCCCCCCCCCCC(=O)O)C(=O)O)C(C)C)C(C)C)C(=O)N[C@@H](CCC(N)=O)C(=O)N[C@@H](CC(C)C)C(=O)N[C@@H](CCSC)C(=O)N[C@@H](Cc1c[nH]cn1)C(=O)N[C@@H](CC(N)=O)C(=O)N[C@@H](CC(C)C)C(=O)NCC(=O)N[C@@H](CCCCN)C(=O)N[C@@H](Cc1c[nH]cn1)C(=O)N[C@@H](CC(C)C)C(=O)N[C@@H](CC(N)=O)C(=O)N[C@@H](CO)C(=O)N[C@@H](CCSC)C(=O)N[C@@H](CCC(=O)O)C(=O)N[C@@H](CCCNC(=N)N)C(=O)N[C@H](C(=O)N[C@@H](CCC(=O)O)C(=O)N[C@@H](Cc1c[nH]c2ccccc12)C(=O)N[C@@H](CC(C)C)C(=O)N[C@@H](CCCNC(=N)N)C(=O)N[C@@H](CCCCN)C(=O)N[C@@H](CCCCN)C(=O)N[C@@H](CC(C)C)C(=O)N[C@@H](CCC(N)=O)C(=O)N[C@@H](CC(=O)O)C(=O)N[C@H](C(=O)N[C@@H](Cc1c[nH]cn1)C(=O)N[C@@H](CC(N)=O)C(=O)N[C@@H](Cc1ccccc1)C(=O)O)C(C)C)C(C)C` [SEQ ID NO: 48], in series [1], the half-life is 2.79 days and the “Half life, fold faster than Sar (vs SEQ ID NO: 52)” value is recorded as 1.9 faster than Sar. Further, the “Half life, fold slower than dK (vs SEQ ID NO: 46)” value in series [1] (comparator SEQ ID NO: 46) stood at 1.4 slower than dK.

With `CC[C@H](C)[C@H](NC(=O)[C@H](CCC(=O)O)NC(=O)[C@H](CO)NC(=O)[C@@H](NC(=O)[C@H](CO)NC(=O)CN(C(=O)[C@H](N)CCCCNC(=O)CC[C@H](NC(=O)CCCCCCCCCCCCCCCCC(=O)O)C(=O)O)C(C)C)C(C)C)C(=O)N[C@@H](CCC(N)=O)C(=O)N[C@@H](CC(C)C)C(=O)N[C@@H](CCSC)C(=O)N[C@@H](Cc1c[nH]cn1)C(=O)N[C@@H](CC(N)=O)C(=O)N[C@@H](CC(C)C)C(=O)NCC(=O)N[C@@H](CCCCN)C(=O)N[C@@H](Cc1c[nH]cn1)C(=O)N[C@@H](CC(C)C)C(=O)N[C@@H](CC(N)=O)C(=O)N[C@@H](CO)C(=O)N[C@@H](CCSC)C(=O)N[C@@H](CCC(=O)O)C(=O)N[C@@H](CCCNC(=N)N)C(=O)N[C@H](C(=O)N[C@@H](CCC(=O)O)C(=O)N[C@@H](Cc1c[nH]c2ccccc12)C(=O)N[C@@H](CC(C)C)C(=O)N[C@@H](CCCNC(=N)N)C(=O)N[C@@H](CCCCN)C(=O)N[C@@H](CCCCN)C(=O)N[C@@H](CC(C)C)C(=O)N[C@@H](CCC(N)=O)C(=O)N[C@@H](CC(=O)O)C(=O)N[C@H](C(=O)N[C@@H](Cc1c[nH]cn1)C(=O)N[C@@H](CC(N)=O)C(=O)N[C@@H](Cc1ccccc1)C(=O)O)C(C)C)C(C)C` [SEQ ID NO: 46], in series [1], the half-life was 1.96 days. The “Half life, fold faster (vs SEQ ID NO: 45)” value in series [1] (comparator SEQ ID NO: 45) stood at 1.9 faster than Sar.

For the molecule `CC[C@H](C)[C@H](NC(=O)[C@H](CCC(=O)O)NC(=O)[C@H](CO)NC(=O)[C@@H](NC(=O)[C@H](CO)NC(=O)[C@H](C)N(C)C(=O)[C@@H](N)CCCCNC(=O)CC[C@H](NC(=O)CCCCCCCCCCCCCCCCC(=O)O)C(=O)O)C(C)C)C(=O)N[C@@H](CCC(N)=O)C(=O)N[C@@H](CC(C)C)C(=O)N[C@@H](CCSC)C(=O)N[C@@H](Cc1c[nH]cn1)C(=O)N[C@@H](CC(N)=O)C(=O)N[C@@H](CC(C)C)C(=O)NCC(=O)N[C@@H](CCCCN)C(=O)N[C@@H](Cc1c[nH]cn1)C(=O)N[C@@H](CC(C)C)C(=O)N[C@@H](CC(N)=O)C(=O)N[C@@H](CO)C(=O)N[C@@H](CCSC)C(=O)N[C@@H](CCC(=O)O)C(=O)N[C@@H](CCCNC(=N)N)C(=O)N[C@H](C(=O)N[C@@H](CCC(=O)O)C(=O)N[C@@H](Cc1c[nH]c2ccccc12)C(=O)N[C@@H](CC(C)C)C(=O)N[C@@H](CCCNC(=N)N)C(=O)N[C@@H](CCCCN)C(=O)N[C@@H](CCCCN)C(=O)N[C@@H](CC(C)C)C(=O)N[C@@H](CCC(N)=O)C(=O)N[C@@H](CC(=O)O)C(=O)N[C@H](C(=O)N[C@@H](Cc1c[nH]cn1)C(=O)N[C@@H](CC(N)=O)C(=O)N[C@@H](Cc1ccccc1)C(=O)O)C(C)C)C(C)C` [SEQ ID NO: 53], in series [1], the half-life is 2.96 days and the “Half life, fold faster than Sar (vs SEQ ID NO: 52)” value is reported as 1.8 faster than Sar.

Consider `CC[C@H](C)[C@H](NC(=O)[C@H](CCC(=O)O)NC(=O)[C@H](CO)NC(=O)[C@@H](NC(=O)[C@H](CO)NC(=O)CN(C)C(=O)[C@@H](N)CCCCNC(=O)CC[C@H](NC(=O)CCCCCCCCCCCCCCCCC(=O)O)C(=O)O)C(C)C)C(=O)N[C@@H](CCC(N)=O)C(=O)N[C@@H](CC(C)C)C(=O)N[C@@H](CCSC)C(=O)N[C@@H](Cc1c[nH]cn1)C(=O)N[C@@H](CC(N)=O)C(=O)N[C@@H](CC(C)C)C(=O)NCC(=O)N[C@@H](CCCCN)C(=O)N[C@@H](Cc1c[nH]cn1)C(=O)N[C@@H](CC(C)C)C(=O)N[C@@H](CC(N)=O)C(=O)N[C@@H](CO)C(=O)N[C@@H](CCSC)C(=O)N[C@@H](CCC(=O)O)C(=O)N[C@@H](CCCNC(=N)N)C(=O)N[C@H](C(=O)N[C@@H](CCC(=O)O)C(=O)N[C@@H](Cc1c[nH]c2ccccc12)C(=O)N[C@@H](CC(C)C)C(=O)N[C@@H](CCCNC(=N)N)C(=O)N[C@@H](CCCCN)C(=O)N[C@@H](CCCCN)C(=O)N[C@@H](CC(C)C)C(=O)N[C@@H](CCC(N)=O)C(=O)N[C@@H](CC(=O)O)C(=O)N[C@H](C(=O)N[C@@H](Cc1c[nH]cn1)C(=O)N[C@@H](CC(N)=O)C(=O)N[C@@H](Cc1ccccc1)C(=O)O)C(C)C)C(C)C` [SEQ ID NO: 52], for which, in series [1], the half-life is 5.42 days. The “Half life, fold slower than dK (vs SEQ ID NO: 45)” value in series [1] (comparator SEQ ID NO: 45) is on record as 1.4 slower than dK.

These data come from patent US20260224716A1, “PTH ANALOGS FOR THE TREATMENT OF HYPOPARATHYROIDISM” (priority 2020, published 2026).
